Calls of active or inactive are those of the source. The rule behind the calls is not given here.
Experiments:
BT-474 = assay: Antiproliferative activity against human BT-474 cells assessed as reduction in cell growth incubated for 7 days by celltiter 96 aqueous one solution cell proliferation assay; settings: BT-474, 168 h
MCF7 [1] = assay: Antiproliferative activity against tamoxifen-resistant human MCF7 cells assessed as reduction in cell growth at 5 uM incubated for 7 days by celltiter 96 aqueous one solution cell proliferation assay; type: functional, cell-based; settings: time 7.0 day
MCF7 [2] = assay: Antitumor activity against human MCF7 cells xenografted in BALB/C mouse assessed as inhibition of tumor growth at 50 mg/kg,ip administrated every other day for 29 days; type: functional, organism-based; settings: time 29.0 day
[3] = Toxicity in BALB/C mouse xenografted with human MCF7 cells assessed as change in heart morphology at 50 mg/kg,ip administrated every other day for 29 days; type: organism-based; settings: in vivo, 696 h, time 29 day
[4] = Toxicity in BALB/C mouse xenografted with human MCF7 cells assessed as change in spleen morphology at 25 mg/kg,ip administrated every other day for 29 days; type: organism-based; settings: in vivo, 696 h, time 29 day
MCF7 [5] = assay: Antitumor activity against human MCF7 cells xenografted in BALB/C mouse assessed as downregulation of CCND1 gene expression at 25 mg/kg,ip administrated every other day for 29 days by RT-qPCR analysis; type: functional, organism-based; settings: time 29.0 day
MCF7 [6] = assay: Antitumor activity against human MCF7 cells xenografted in BALB/C mouse assessed as downregulation of GREB1 gene expression at 25 mg/kg,ip administrated every other day for 29 days by RT-qPCR analysis; type: functional, organism-based; settings: time 29.0 day
MCF7 [7] = assay: Antitumor activity against human MCF7 cells xenografted in BALB/C mouse assessed as downregulation of NRIP1 gene expression at 25 mg/kg,ip administrated every other day for 29 days by RT-qPCR analysis; type: functional, organism-based; settings: time 29.0 day
MCF7 [8] = assay: Antitumor activity against human MCF7 cells xenografted in BALB/C mouse assessed as downregulation of FOXC1 gene expression at 25 mg/kg,ip administrated every other day for 29 days by RT-qPCR analysis; type: functional, organism-based; settings: time 29.0 day
MCF7 [9] = assay: Antitumor activity against human MCF7 cells xenografted in BALB/C mouse assessed as downregulation of PGR gene expression at 25 mg/kg,ip administrated every other day for 29 days by RT-qPCR analysis; type: functional, organism-based; settings: time 29.0 day
MCF7 [10] = assay: Antitumor activity against human MCF7 cells xenografted in BALB/C mouse assessed as upregulation of IFIT1 gene expression at 25 mg/kg,ip administrated every other day for 29 days by RT-qPCR analysis; type: functional, organism-based; settings: time 29.0 day
MDA-MB-468 = assay: Antiproliferative activity against human MDA-MB-468 cells assessed as reduction in cell growth incubated for 7 days by celltiter 96 aqueous one solution cell proliferation assay; settings: MDA-MB-468, 168 h
4T1 [11] = assay: Antitumor activity against mouse 4T1 cells implanted in BALB/C mouse assessed as inhibition of tumor size at 50 mg/kg,ip administrated daily for 14 days; type: functional, organism-based; settings: time 14.0 day
[12] = Toxicity in BALB/C mouse implanted with mouse 4T1 cells assessed as change in body weight at 25 mg/kg,ip administrated daily for 14 days; type: organism-based; settings: in vivo, 336 h, time 14 day
[13] = Toxicity in BALB/C mouse implanted with mouse 4T1 cells assessed as change in heart morphology at 25 mg/kg,ip administrated daily for 14 days; type: organism-based; settings: in vivo, 336 h, time 14 day
[14] = Toxicity in BALB/C mouse implanted with mouse 4T1 cells assessed as change in liver morphology at 25 mg/kg,ip administrated daily for 14 days; type: organism-based; settings: in vivo, 336 h, time 14 day
[15] = Toxicity in BALB/C mouse implanted with mouse 4T1 cells assessed as change in lung morphology at 25 mg/kg,ip administrated daily for 14 days; type: organism-based; settings: in vivo, 336 h, time 14 day
[16] = Toxicity in BALB/C mouse implanted with mouse 4T1 cells assessed as change in kidney morphology at 25 mg/kg,ip administrated daily for 14 days; type: organism-based; settings: in vivo, 336 h, time 14 day
4T1 [17] = assay: Antitumor activity against mouse 4T1 cells implanted in BALB/C mouse assessed as downregulation of NRIP1 gene expression at 50 mg/kg,ip administrated daily for 14 days by RT-qPCR analysis; type: functional, organism-based; settings: time 14.0 day
4T1 [18] = assay: Antitumor activity against mouse 4T1 cells implanted in BALB/C mouse assessed as increase in infiltration of CD8 positive T cells at 25 mg/kg,ip administrated daily for 14 days by immunohistochemical staining based analysis; type: functional, organism-based; settings: time 14.0 day
4T1 [19] = assay: Antitumor activity against mouse 4T1 cells implanted in BALB/C mouse assessed as increase in infiltration of CD8 positive T cells at 50 mg/kg,ip administrated daily for 14 days by immunohistochemical staining based analysis; type: functional, organism-based; settings: time 14.0 day
MCF7 [20] = assay: Synergistic antiproliferative activity against human MCF7 cells assessed as downregulation of N-Myc gene expression at 2.5 uM incubated for 6 hrs in presence of tamoxifen by RT-qPCR analysis; type: functional, cell-based
MCF7 [21] = assay: Synergistic antiproliferative activity against human MCF7 cells assessed as downregulation of TFF1 gene expression at 2.5 uM incubated for 6 hrs in presence of fulvestrant by RT-qPCR analysis; type: functional, cell-based
MCF7 [22] = assay: Synergistic antiproliferative activity against human MCF7 cells assessed as downregulation of FOXC1 gene expression at 2.5 uM incubated for 6 hrs in presence of tamoxifen by RT-qPCR analysis; type: functional, cell-based
[23] = Toxicity in BALB/C mouse xenografted with human MCF7 cells assessed as change in body weight at 25 mg/kg,ip administrated every other day for 15 days in presence of 5 mg/kg tamoxifen oral administration; type: organism-based; settings: in vivo, 360 h, time 15 day
MCF7 [24] = assay: Synergistic antitumor activity against human MCF7 cells xenografted in BALB/C mouse assessed as downregulation of C-Myc gene expression at 25 mg/kg,ip administrated every other day for 15 days in presence of 5 mg/kg tamoxifen oral administration by RT-qPCR analysis; type: functional, organism-based; settings: time 15.0 day
MCF7 [25] = assay: Synergistic antitumor activity against human MCF7 cells xenografted in BALB/C mouse assessed as downregulation of FOXC1 gene expression at 25 mg/kg,ip administrated every other day for 15 days in presence of 5 mg/kg tamoxifen oral administration by RT-qPCR analysis; type: functional, organism-based; settings: time 15.0 day
MCF7 [26] = assay: Potentiation of etoposide induced antiproliferative activity against human MCF7 cells assessed as inhibition of colony formation at 2.5 uM incubated for 10 days in presence of etoposide by crystal violet staining based analysis; type: functional, cell-based; settings: time 10.0 day
4T1 [27] = assay: Potentiation of etoposide induced antiproliferative activity against mouse 4T1 cells assessed as upregulation of ISG15 gene expression at 2.5 uM in presence of etoposide by RT-qPCR analysis; type: functional, cell-based
4T1 [28] = assay: Potentiation of etoposide induced antiproliferative activity against mouse 4T1 cells assessed as upregulation of IFIT1 gene expression at 2.5 uM in presence of etoposide by RT-qPCR analysis; type: functional, cell-based
4T1 [29] = assay: Potentiation of etoposide induced antiproliferative activity against mouse 4T1 cells assessed as upregulation of DDX58 gene expression at 2.5 uM in presence of etoposide by RT-qPCR analysis; type: functional, cell-based
4T1 [30] = assay: Potentiation of etoposide induced antitumor activity against mouse 4T1 cells implanted in BALB/C mouse assessed as upregulation of CCL5 gene expression at 25 mg/kg,ip administrated daily for 12 days in presence of 8 mg/kg etoposide administration by RT-qPCR analysis; type: functional, organism-based; settings: time 12.0 day

**Q.** With `Cc1ccc(-c2nc(N3CCN(CCN(C)C)CC3)ncc2-c2ccoc2)cc1.Cl.Cl` as the compound, how does the EC50 (BT-474) read?
**A.** The EC50 was 2130 nM.

**Q.** What about the Activity (MCF7 [1]) of the same compound?
**A.** Its Activity is “Active”.

**Q.** And the Activity (MCF7 [2])?
**A.** Its Activity is “Active”.

**Q.** And the Activity [3]?
**A.** Its Activity is “Non-Toxic”.

**Q.** What about the Activity [4] of the same compound?
**A.** The Activity was “Non-Toxic”.

**Q.** What about the Activity (MCF7 [5]) of the same compound?
**A.** The Activity was “Active”.

**Q.** And the Activity (MCF7 [6])?
**A.** Its Activity is “Active”.

**Q.** And the Activity (MCF7 [7])?
**A.** The Activity was “Active”.

**Q.** And the Activity (MCF7 [8])?
**A.** The Activity was “Active”.

**Q.** And the Activity (MCF7 [9])?
**A.** The Activity was “Active”.

**Q.** What about the Activity (MCF7 [10]) of the same compound?
**A.** The Activity was “Active”.

**Q.** What about the EC50 (MDA-MB-468) of the same compound?
**A.** The EC50 was 2020 nM.

**Q.** What about the Activity (4T1 [11]) of the same compound?
**A.** The Activity was “Active”.

**Q.** What about the Activity [12] of the same compound?
**A.** Its Activity is “Non-Toxic”.

**Q.** What about the Activity [13] of the same compound?
**A.** Its Activity is “Non-Toxic”.

**Q.** What about the Activity [14] of the same compound?
**A.** Its Activity is “Non-Toxic”.

**Q.** And the Activity [15]?
**A.** The Activity was “Non-Toxic”.

**Q.** What about the Activity [16] of the same compound?
**A.** The Activity was “Non-Toxic”.

**Q.** What about the Activity (4T1 [17]) of the same compound?
**A.** The Activity was “Active”.

**Q.** And the Activity (4T1 [18])?
**A.** The Activity was “Active”.

**Q.** What about the Activity (4T1 [19]) of the same compound?
**A.** The Activity was “Active”.

**Q.** What about the Activity (MCF7 [20]) of the same compound?
**A.** The Activity was “Active”.

**Q.** And the Activity (MCF7 [21])?
**A.** The Activity was “Active”.

**Q.** And the Activity (MCF7 [22])?
**A.** Its Activity is “Active”.

**Q.** And the Activity [23]?
**A.** Its Activity is “Non-Toxic”.

**Q.** And the Activity (MCF7 [24])?
**A.** The Activity was “Active”.

**Q.** And the Activity (MCF7 [25])?
**A.** Its Activity is “Active”.

**Q.** And the Activity (MCF7 [26])?
**A.** Its Activity is “Active”.

**Q.** What about the Activity (4T1 [27]) of the same compound?
**A.** Its Activity is “Active”.

**Q.** What about the Activity (4T1 [28]) of the same compound?
**A.** Its Activity is “Active”.

**Q.** What about the Activity (4T1 [29]) of the same compound?
**A.** The Activity was “Active”.

**Q.** And the Activity (4T1 [30])?
**A.** The Activity was “Active”.

Source: ChEMBL document CHEMBL5512665, “A CARM1 Inhibitor Potently Suppresses Breast Cancer Both In Vitro and In Vivo” (J Med Chem, 2024)
